Patent publication US20120316245A1, “CO-CRYSTALS OF AGOMELATINE, A PROCESS FOR THERE PREPARATION AND PHARMACEUTICAL COMPOSITIONS CONTAINING THEM” (LES LABORATOIRES SERVIER, priority 2011, published 2012)

Experiment: Measurement of the dissolution rate of the co-crystals (tDISS apparatus, pION)
Type: physicochemical
Details: 37° C., stirring speed 700 rpm
Description: The results obtained are collated in the following tables and are expressed as percentage increases in the dissolution rate of the co-crystal compared to the dissolution rate obtained for agomelatine of form II contained in the marketed Valdoxan® form: [formula]

| Structure (SMILES) | percentage increase in the dissolution rate of the co-crystal compared to agomelatine of form II (Valdoxan) (0.01 N HCl) | percentage increase in the dissolution rate of the co-crystal compared to agomelatine of form II (Valdoxan) (pH 6.8 buffer) |
| --- | --- | --- |
| COc1ccc2cccc(CCNC(C)=O)c2c1.O=C(O)CC(O)(CC(=O)O)C(=O)O [Compound of Example 1, Co-Crystal of Agomelatine/Citric Acid (1/1)] | +25% | +70% |
| COc1ccc2cccc(CCNC(C)=O)c2c1.COc1ccc2cccc(CCNC(C)=O)c2c1.O=C(O)c1cc(O)c(O)c(O)c1 [Compound of Example 2, Co-Crystal of Agomelatine/Gallic Acid (2/1)] | +37% | +29% |
| COc1ccc2cccc(CCNC(C)=O)c2c1.O=C(O)CO [Compound of Example 10, Co-Crystal of Agomelatine/Glycolic Acid (1/1)] | −30% | −30% |
| COc1ccc2cccc(CCNC(C)=O)c2c1.COc1ccc2cccc(CCNC(C)=O)c2c1.O=C(O)C(=O)O [Compound of Example 7, Co-Crystal of Agomelatine/Oxalic Acid (2/1)] | +1.5% | +33% |
| COc1ccc2cccc(CCNC(C)=O)c2c1.COc1ccc2cccc(CCNC(C)=O)c2c1.O=C(O)c1ccc(O)cc1 [Compound of Example 5, Co-Crystal of Agomelatine/Para-Hydroxybenzoic Acid (2/1)] | +97% | +89% |
| COc1ccc2cccc(CCNC(C)=O)c2c1.O=C(O)CCCC(=O)O [Compound of Example 8, Co-Crystal of Agomelatine/Glutaric Acid (1/1)] | −42% | −29% |
| COc1ccc2cccc(CCNC(C)=O)c2c1.O=C(O)C=CC(=O)O [Compound of Example 3, Co-Crystal of Agomelatine/Maleic Acid (1/1)] | −26% | −4% |
| COc1ccc2cccc(CCNC(C)=O)c2c1.O=C(O)CCC(=O)C(=O)O [Compound of Example 9, Co-Crystal of Agomelatine/Ketoglutaric Acid (1/1)] | −47% | −32% |
| COc1ccc2cccc(CCNC(C)=O)c2c1.O=C(O)CC(=O)O [Compound of Example 4, Co-Crystal of Agomelatine/Malonic Acid (1/1)] | −55% | −21% |
| COc1ccc2cccc(CCNC(C)=O)c2c1.O=C(O)c1ccc(O)cc1.O=C(O)c1ccc(O)cc1 [Compound of Example 6, Co-Crystal of Agomelatine/Para-Hydroxybenzoic Acid (1/2)] | +19% | +46% |
